# According to patent publication US12697325B2 (TENNOR THERAPEUTICS (SUZHOU) LIMITED, priority 2021, dated 2026):
# Assays:
# [1] = 2 g, q8 h via infusion for 3 h; cited from earlier work
# [2] = cited from earlier work
# [3] = tested on: Acinetobacter baumannii strains; assay: Minimum inhibitory concentration (CLSI M07), Example 2, 20 strains; assay type: cell-based
# Protocol: The minimum inhibitory concentration (MIC) was determined in accordance with the requirements of the Clinical and Laboratory Standards Institute (CLSI) M07 (for aerobic bacteria).
# 3.1 The compounds were diluted with DMSO up to 100 times of the highest concentration tested.
# The steps of manual dilution are as follows (example): firstly, the compound or antibiotic was diluted to 100 times of the maximum final concentration tested, then 60 μL of compound mother liquor was added to the first column of the 96-well plate, and 30 μL of DMSO was added to each well in the second to the 12th column; 30 μL of the liquid was transferred from the first column to the second column. After being pipetted up and down to even, 30 μL was transferred to the third column, and was diluted in sequence at a 2-fold gradient for a total of 10 times; then 30 μL was removed from each well in the 11th column, then a compound solution diluted at 2-fold gradient was obtained and 1 μL was transferred to a 96-well test plate.
# Aerobic bacteria: the strains were inoculated on MHA one day in advance and incubated overnight at 37° C. On the day of the assay, 5-6 single colonies were picked and suspended evenly in saline, and the bacterial concentration was adjusted to the turbidity of 0.5 McFarland standard (concentration is about 1×10^8 CFU/mL). The bacterial suspension was diluted at 200-fold with the corresponding liquid culture medium (Table 1), i.e., the bacterial concentration was ~5×10^5 CFU/ml, and then 100 μL of the liquid was transferred to a 96-well round bottom plate (the 96-well plate with compound prepared in 4.2, Echo method) to obtain the test plate. If the compound was manually diluted, then 99 μL of the solution was transferred into a 96-well round bottom plate. The 96-well round bottom plate obtained above was placed into an incubator at 37° C. and 85% humidity to incubate for 20 h.
smiles,measurement,setting,value
"CC1(C)[C@H](C(=O)O)N2C(=O)C[C@H]2S1(=O)=O [Sulbactam, (2S, 5R)-3,3-dimethyl-7-oxo-4-thia-1-azabicyclo [3.2.0] heptane-2-carboxylic acid 4,4-dioxide]",Part of the dosing interval with plasma concentration above 2 μg/mL,[1],44%
same,Part of the dosing interval with plasma concentration above 4 μg/mL,[1],19%
same,Protein binding,[2],approximately 5.2%
same,MIC of the strain BAA-1795 (component in the combination),"[3]; strain BAA-1795, sulbactam/avibactam 4:1, concentration of the named component",8 µg/mL
same,MIC90 of the single component in the combination,"[3]; sulbactam sodium:avibactam sodium = 4:1, concentration of the named component",16 µg/mL
same,MIC50 of the single component in the combination,"[3]; sulbactam sodium:avibactam sodium = 4:1, concentration of the named component, Examples 1 and 2",8 µg/mL
